Source: patent US10087173B2, “Substituted aminothiazoles as inhibitors of cancers, including hepatocellular carcinoma, and as inhibitors of hepatitis virus replication” (BARUCH S. BLUMBERG INSTITUTE, priority 2011, dated 2018)
Read-outs that look alike come from different tables or passages of the source.

Legend:
Type in all cases: cell-based
[1] = MTT cell viability assay, THLE2 cells, 72 h; conditions: human, immortalized normal hepatocytes THLE2, 72 hours, 0.016-50.0 μM tested
Text: Huh-7 cells and derived from hepatocellular carcinoma cells, and were donated by Dr. Xuanyong Lu, (Drexel University College of Medicine, Doylestown, Pa.). THLE-2 were purchased from American Type Culture Collection (Manassas, Va.). PH5CH were donated by Dr. Masayuki Noguchi (University of Tsukuba, Ibaraki, Japan). THLE-2 and PH5CH have been immortalized through stable transfection of the SV40 large T antigen in normal hepatocytes, and are thus cell lines that are representative of normal hepatocytes rather than HCC cells. […] All cell lines were cultured and maintained in 5% CO2 at 37° C. Huh-7 were maintained in the culture media DMEM/F12 (Dulbecco's Modified Eagle Medium) with 10% Fetal bovine serum (FBS), 100 μg/mL penicillin, 100 units/mL streptomycin, and 50 μg/mL normocin. THLE-2 and PH5CH were maintained in the culture media Brochial Epithelial Growth Media (BEGM) with 10% FBS, 100 μg/mL penicillin, 100 units/mL streptomycin, with the following additives form the prepackaged kit: Bovine pituitary extract (BPE), insulin, hydrocortisone, retinoic acid, transferrin, triiodothyronine, supplemented with 5 ng/ml human epidermal growth factor and 70 ng/ml phosphoethanolamine (Lonza Walkersville Inc., Walkersville, Md.).
(§1) Huh7 cells were plated on 96-well plates at 2.0×10^4 cells per well to permit grow in the presence of compounds of the disclosure. Compounds of the disclosure were prediluted and transferred to cell plates by automated liquid handling. Cells were incubated with compounds of the disclosure for 72 hours, after which culture growth and viability were assessed by addition of 50 μg/mL 3-(4,5-Dimethyl-2-thiazolyl)-2,5-diphenyl-2H-tetrazolium bromide (MTT) incubation for 4 hours at 37° C. Solubilization buffer (0.01M HCl, 10% SDS) was added followed by incubation at 37° C. overnight. Absorbance was measured at 570 nm (reference 630 nm). Compound of the disclosure were tested in Huh7, THLE-2 and PH5CH, over eight-point dilutions in half-log steps, testing 50.0, 16.6, 5.0, 1.66, 0.5, 0.166, 0.05, and 0.016 μM in 0.5% DMSO, with each concentration in duplicate wells. […] Each compound was tested from 2 to 7 times in separate assay trials.
(§2) Selectivity of toxicity in HCC-derived cells over normal liver-derived cells is important for the purposes of developing a therapy that specifically targets the cancer with low toxicity for […]. The Selective Index (SI) is the ratio of CC50 in normal cells (THLE2 or PH5CH) over the CC50 in the liver cancer derived cells; thus, the higher the number, the lower the potential toxicity at an efficacious dose.

Huh7 cells = test: MTT cell viability assay, Huh7 cells, 72 h; conditions: Homo sapiens, read-out: Huh7 CC50
Text: (§3) Huh-7 cells and derived from hepatocellular carcinoma cells, and were donated by Dr. Xuanyong Lu, (Drexel University College of Medicine, Doylestown, Pa.). THLE-2 were purchased from American Type Culture Collection (Manassas, Va.). PH5CH were donated by Dr. Masayuki Noguchi (University of Tsukuba, Ibaraki, Japan). THLE-2 and PH5CH have been immortalized through stable transfection of the SV40 large T antigen in normal hepatocytes, and are thus cell lines that are representative of normal hepatocytes rather than HCC cells. THLE2 have been confirmed to not form tumors in athymic mice. All cell lines were cultured and maintained in 5% CO2 at 37° C. Huh-7 were maintained in the culture media DMEM/F12 (Dulbecco's Modified Eagle Medium) with 10% Fetal bovine serum (FBS), 100 μg/mL penicillin, 100 units/mL streptomycin, and 50 μg/mL normocin. THLE-2 and PH5CH were maintained in the culture media Brochial Epithelial Growth Media (BEGM) with 10% FBS, 100 μg/mL penicillin, 100 units/mL streptomycin, with the following additives form the prepackaged kit: Bovine pituitary extract (BPE), insulin, hydrocortisone, retinoic acid, transferrin, triiodothyronine, supplemented with 5 ng/ml human epidermal growth factor and 70 ng/ml phosphoethanolamine (Lonza Walkersville Inc., Walkersville, Md.).
as §1

[2] = MTT cell viability assay, PH5CH cells, 72 h; conditions: human, immortalized normal hepatocytes PH5CH, 0.016-50.0 μM tested
Text: as §3, §1, §2

[3] = Huh-7, hepatocellular carcinoma derived Huh7 cells, 72 hours, MTT, 0.016-50.0 μM tested

| SMILES | CC50 at 72 h [1] [µM] | CC50 (Huh7 cells; [3]) [µM] | CC50 at 72 h [2] [µM] | CC50 (Huh7 cells; Huh-7, 72 h) [µM] |
| --- | --- | --- | --- | --- |
| CCOC(=O)c1sc(Nc2ncccn2)nc1-c1ccccn1 [Entry 19] | 38.7 | 0.362 | 44 | – |
| CCCCCc1sc(Nc2ncccn2)nc1-c1ccccn1 [Entry 25] | ≥ 50 | 25.9 | ≥ 50 | – |
| Cc1ccnc(-c2csc(Nc3ncccn3)n2)c1 [Entry 8] | 14 | 0.563 | 34 | – |
| OCCN(c1ncccn1)c1nc(-c2ccccn2)cs1 [Entry 17] | ≥ 50 | 48.9 | ≥ 50 | – |
| c1ccc(-c2csc(Nc3ccncn3)n2)nc1 [Entry 12] | 4.47 | 3.05 | – | – |
| c1cnc(Nc2nc(-c3ccncc3)cs2)nc1 [Entry 5] | 48.5 | 14.2 | – | – |
| c1ccc(Nc2nc(-c3ccccc3)cs2)cc1 [Entry 7] | 21.1 | 10.3 | – | – |
| c1cnc(Nc2nc(-c3cccnc3)cs2)nc1 [Entry 4] | 8.66 | 6.3 | – | – |
| CC(C)N(c1ncccn1)c1nc(-c2ccccn2)cs1 [Entry 16] | ≥ 50 | – | ≥ 50 | 25.7 |
| Cc1c(Cl)cccc1Nc1nc(-c2ccccn2)cs1 [Entry 46] | – | 3.5 | – | – |
| c1ccc(-c2csc(Nc3cnccn3)n2)nc1 [Entry 11] | 0.539 | 5 | – | – |
| c1ccc(Nc2nc(-c3ccccn3)cs2)cc1 [Entry 6] | – | 6.53 | – | – |
| Oc1cccc(-c2csc(Nc3ncccn3)n2)n1 [Entry 28] | ≥ 50 | 46.2 | ≥ 50 | – |
| Brc1cnc(Nc2nc(-c3ccccn3)cs2)nc1 [Entry 14] | 41 | 31.8 | – | – |
| Cc1sc(Nc2ncccn2)nc1-c1ccccn1 [Entry 22] | 42.9 | 5.92 | 42 | – |
| CN(c1ncccn1)c1nc(-c2ccccn2)cs1 [Entry 15] | 49.1 | 5.32 | 49.7 | – |
| c1ccc(-c2csc(Nc3ncccn3)n2)cc1 [Entry 3] | 9.16 | 6.43 | – | – |
| Cc1cnc(-c2csc(Nc3ncccn3)n2)c(C)c1 [Entry 27] | 2.23 | 2.74 | 47.6 | – |
| CCOC(=O)c1sc(Nc2ncccn2)nc1-c1cccc(C)n1 [Entry 36] | ≥ 50 | ≥ 50 | ≥ 50 | – |
| c1ccc(CN(c2ncccn2)c2nc(-c3ccccn3)cs2)cc1 [Entry 18] | 49.8 | ≥ 50 | 46.9 | – |
| CCc1sc(Nc2ncccn2)nc1-c1ccccn1 [Entry 21] | 24.7 | 15.4 | 44.1 | – |

| SMILES | CC50 at 72 h [1] [µM] | CC50 (Huh7 cells; [3]) [µM] | CC50 at 72 h [2] [µM] | CC50 (Huh7 cells; Huh-7, 72 h) [µM] |
| --- | --- | --- | --- | --- |
| CC(C)(C)OC(=O)c1sc(N(c2ncccn2)C(C)(C)C)nc1-c1ccccn1 [Entry 44] | ≥ 50 | – | ≥ 50 | 20.5 |
| Cc1ccc2nc(Nc3nc(-c4ccccn4)cs3)sc2c1 [Entry 23] | 3.96 | 4.92 | 3.97 | – |
| c1ccc(-c2csc(Nc3ncccn3)n2)nc1 [Entry 1] | 40 | 1.39 | ≥ 50 | – |
| NC(=O)c1sc(Nc2ncccn2)nc1-c1ccccn1 [Entry 41] | 26.6 | ≥ 50 | ≥ 50 | – |
| OCc1sc(Nc2ncccn2)nc1-c1ccccn1 [Entry 20] | 31.1 | 11.3 | 46.9 | – |
| Brc1cccc(-c2csc(Nc3ncccn3)n2)n1 [Entry 10] | 9.75 | 7.82 | – | – |
| FC(F)(F)c1ccnc(Nc2nc(-c3ccccn3)cs2)n1 [Entry 34] | 37.8 | 26.6 | ≥ 50 | – |
| Oc1cccc(Nc2nc(-c3ccccc3)cs2)c1 [Entry 45] | ≥ 50 | 8 | – | – |
| N#Cc1sc(Nc2ncccn2)nc1-c1ccccn1 [Entry 47] | ≥ 50 | ≤ 0.016 | ≥ 50 | – |
| Brc1sc(Nc2ncccn2)nc1-c1ccccn1 [Entry 9] | 29.9 | 2.53 | – | – |
| c1ccc(-c2nc(Nc3ncccn3)sc2C2CCCCC2)nc1 [Entry 33] | 3.54 | ≥ 50 | ≥ 50 | – |
| O=C(NCc1ccccc1)c1sc(Nc2ncccn2)nc1-c1ccccn1 [Entry 37] | ≥ 50 | 17.7 | 31.5 | – |
| Cc1ccnc(Nc2nc(-c3ccccn3)cs2)n1 [Entry 30] | ≥ 50 | ≥ 50 | ≥ 50 | – |
| CCOC(=O)c1sc(Nc2nccc(C)n2)nc1-c1ccccn1 [Entry 31] | ≥ 50 | ≤ 0.016 | ≥ 50 | – |
| CCOC(=O)c1sc(Nc2ncccn2)nc1-c1cc(C)ccn1 [Entry 35] | 37.2 | 4.72 | 39.2 | – |
| CN(Cc1cnc2nc(N)nc(N)c2n1)c1ccc(C(=O)NC(CCC(=O)NCCOCCOCCOCCOCCOCCNC(=O)c2sc(Nc3ncccn3)nc2-c2ccccn2)C(=O)OC(C)(C)C)cc1 (stereo not drawn) [Entry 40] | ≥ 50 | 34.8 | ≥ 50 | – |
| CC(C)c1sc(Nc2ncccn2)nc1-c1ccccn1 [Entry 24] | ≥ 50 | – | ≥ 50 | 11.3 |
| c1cnc(Nc2nc(-c3ccc4ccccc4n3)cs2)nc1 [Entry 32] | 8.02 | ≥ 50 | ≥ 50 | – |
| CC(=O)OCc1sc(Nc2ncccn2)nc1-c1ccccn1 [Entry 42] | ≥ 50 | 39.3 | ≥ 50 | – |
| Clc1cnc(Nc2nc(-c3ccccn3)cs2)nc1 [Entry 13] | ≥ 50 | 35 | – | – |
| COC(=O)c1sc(Nc2ncccn2)nc1-c1ccccn1 [Entry 38] | 29.4 | 1.25 | 38.6 | – |
